Test results reported in US20200123127A1, “REMOVAL OF SENESCENCE-ASSOCIATED MACROPHAGES” (EVERON BIOSCIENCES, INC., priority 2016, published 2020).
Like-named read-outs stand apart in the source and are kept apart here.

Assays:
[1] = tested on: B16 melanoma lung metastasis in C57BL/6 mice; test: Senescence-enhanced B16 lung metastasis model; format: in vivo, mouse; conditions: 20 mg/kg intraperitoneally once a day for 5 consecutive days; irradiated (11 Gy) C57BL/6 mice
From the text: FIG. 4. Efficacy of A1.1 analogs in the senescence-enhanced B16 metastasis model. (A) Quantification of metastatic nodules by H&E morphometric analysis, and the resulting reduction in tumor burden (%) compared to vehicle control. (B) Quantitation morphometric analysis of lungs excised from irradiated mice treated with analogs of A1.1 post-inoculation of B16 cell intravenously, along with quantitation of morphometric analysis, are provided. (C) In vitro testing of A1.1 and analogs against the growth and viability of B16 cells, as assessed by the resazurin viability assay after 72 hour exposure to compounds compared to non-treated controls.
The role of senescent cells in the promotion of metastatic potential of cancer cells has also been described [Patent WO 2013090645 A1; Campisi, J. (2015). Cancer and Aging: Rival Demons]. […] To test the efficacy of A1.1, irradiated (11 Gy followed by bone-marrow transplantation) and non-irradiated C57BL/6 mice received B16 melanoma cells via tail vein injection were subsequently (72 hours later) administered A1.1 (20 mg/kg) intraperitoneally once a day for 5 consecutive days.
Synthesized analogs were also tested in vivo, to assess whether optimized structures are capable of showing activity against senescence-mediated B16 lung metastasis in irradiated mice (FIG. 4B). Analogs A1.1, A1.12, A1.13, A1.14, A1.15, and A1.6 were administered at 20 mg/kg intraperitoneally for 5 consecutive days. In addition to A1.1, treatment with analogs A1.12, A1.14 and A1.15 at 20 mg/kg reduced the metastatic burden in the lungs of irradiated mice by more than 2-fold.

[2] = tested on: human neonatal dermal fibroblasts (NDF); test: Resazurin viability assay, senescent vs proliferating/quiescent human neonatal dermal fibroblasts; format: cell-based; conditions: Homo sapiens, Fibroblast, 72 h, 72 hour exposure, resazurin
Description: FIG. 2. Compound A1.1 selectively kills senescent human neonatal dermal fibroblasts (NDF) cells in a dose- and time-dependent manner. (FIG. 2A) Normal proliferating and quiescent NDF cells, and the cells made senescent via exposure to genotoxic agents (doxorubicin, bleomycin and gamma-irradiation) were incubated with increasing concentrations of A1.1. At 72 hours post-treatment cell viability was measured via resazurin viability assay. (FIG. 2B) Compound A1.1 selectively kills senescent NDF cells in time-dependent manner discriminating between acute genotoxic stress and senescence. Acutely damaged NDF cells were irradiated with 4 Gy gamma-irradiation 24 hours before A1.1 treatment. Senescent NDF cells were treated with bleomycin or irradiated with 15 Gy and incubated for 14 days to induce senescence before treatment with A1.1. Proliferating acutely damaged and senescent NDF cell were treated with 1.875-30 μM A1.1 and viable cells were measured at 72 hours after treatment. Average and standard deviation are shown.
Normal proliferating and quiescent NDF cells, and the cells made senescent via exposure to genotoxic agents (doxorubicin, bleomycin and gamma-irradiation) were incubated with increasing concentrations of A1.1. At 72 hours post-treatment cell viability was measured via resazurin viability assay.
A1.1 selectively kills senescent human neonatal dermal fibroblasts (NDF) cells in time-dependent manner discriminating between acute genotoxic stress and senescence ([…]). Acutely damaged NDF cells were irradiated with 4 Gy gamma-irradiation 24 hours before A1.1 treatment. Senescent NDF cells were treated with bleomycin or irradiated with 15 Gy and incubated for 14 days to induce senescence before treatment with A1.1.
(§1) Cytotoxicity of A1.1 analogs against bleomycin-induced senescent human NDFs and rat dermal fibroblasts (RDFs). Activity of analogs was assessed from dose-response curves against irradiation- or bleomycin-induced senescent and proliferating cells to calculate IC50s (uM). The fold difference of proliferating versus senescent cell IC50s was used to assess the level of specific anti-senescent activity of the compounds.
(§2) For generation senescent human neonatal dermal fibroblasts (NDFs) and adult rat dermal fibroblasts (RDFs), cells are treated at ˜10 ug/ml bleomycin for 3 days (for bleomycin-induced senescence) or irradiated once at 20 Gy using a gamma irradiator (Cs source), followed by at least 7 day recovery in fresh medium for induction of senescence. Senescent and non-senescent (proliferating) cells for each cell line are plated into 384-w plate, followed by 72 hour exposure to a dose titration of compounds. Viability measurements are estimated using the resazurin viability assay. Using GraphPad Prism 5, the IC50 values are calculated from the non-linear regression of log-transformed compound concentrations versus dose-response normalized to background and non-treated controls.

[3] = tested on: RWPE-1 normal prostate epithelial cells; test: dnPTEN-induced senescence model in RWPE-1 cells (SA-beta-Gal and methylene blue staining); format: cell-based; conditions: 10 uM for 72 hours
Description: FIG. 3. Activity of A1.1 and analog A1.12 in a model of dnPTEN-induced senescence in RWPE-1 normal prostate epithelial cells. A population of transduced RWPE-1 cells containing doxycycline-inducible dnPTEN was senesced via 1 ug/ml doxycycline for 7 days. Cells which bypass senescence continued to proliferate to form a confluent monolayer. The mixed population of senescent and proliferating cells was treated with A1.1 and A1.12 at 10 uM for 72 hours. SA-beta-Gal staining was used to monitor the amount of senescent cells of treatment groups compared to non-treated control. In addition, methylene blue was used to quantitate overall cell mass, which was comprised mostly of the non-senescent, proliferating cells. Treatment with the anti-senescent compounds led to a substantial decrease in SA-beta-Gal staining, while the amount of methylene blue staining was less affected.
Senescent cells are strongly associated with benign prostate hyperplasia (BPH) and the development of prostate cancer [Vital, P. et al. (2014) The Senescence-Associated Secretory Phenotype Promotes Benign Prostatic Hyperplasia. Am J Pathol, 184(3): 721-731; Burton, D. et al. (2013). Androgen Deprivation-Induced Senescence Promoted Outgrowth of Anderogen-Refractory Protstate Cancer Cells. PLOS One, 8(6):e68003]. […] We sought to evaluate the efficacy of our compounds in a model of RWPE-1 normal prostate epithelial cells transduced with a construct for inducible loss of PTEN function [doxycycline-inducible expression of a dominant-negative PTEN (dnPTEN) mutant]. In the presence of doxycycline, a fraction of the population of transduced cells became senescent, while cells bypassing senescence continued to grow until a confluent monolayer was formed.

[4] = tested on: adult rat dermal fibroblasts (RDF); test: Resazurin viability assay, senescent vs proliferating rat dermal fibroblasts; format: cell-based; conditions: Rattus norvegicus, Fibroblast, 72 hour exposure, resazurin
Description: as §1, §2

COc1ccc(C2C/C(=N\O)c3c(SCc4ccccc4)sc(C(=O)N4CCOCC4)c3C2)cc1 (stereo not shown) [Example A1.13, (3-(Benzylthio)-4-(hydroxyimino)-6-(4-methoxyphenyl)-4,5,6,7tetrahydrobenzo[c]thiophen-1-yl)(morpholino)methanone]
reduction of B16 metastatic load in the lungs of irradiated mice vs vehicle [1]: did not show a substantial decrease

CCNC(=O)c1sc(SCc2ccccc2)c2c1CC(c1ccc(OC)cc1)C/C2=N\O (stereo not shown) [Example A1.12]
IC50 ([2]; proliferating NDF, read-out: IC50 NDFprolif): < 10 µM
IC50 ([2]; senescent NDF, bleomycin-induced, read-out: IC50 NDFsen.bleo): < 5 µM
proliferating cells / overall cell mass (methylene blue staining) [3]: little effect against proliferating cells
senescent cells (number of SA-β-Gal-positive cells) ([3]; dnPTEN-induced senescence): selective elimination of senescent cells
IC50 ([4]; proliferating RDF, read-out: IC50 RDFprolif): < 10 µM
IC50 ([4]; senescent RDF, bleomycin-induced, read-out: IC50 RDFsen.bleo): < 5 µM
